From PubChem BioAssay AID210 (DTP/NCI, 2004) come the findings set out here.

For this assay, the system named is CD2F1 mice, ip Colon 26 adenocarcinoma, median survival T/C. The assay is described as follows: NCI In Vivo Anticancer Drug Screen. Data for tumor model Colon 26 Adenocarcinoma (intraperitoneal) in CD2F1 (CDF1) mice. Conditions: endpoint: median survival time, higher = longer survival. As to the method: The antitumor activity of compounds was measured in mice bearing transplantable tumors. Survival or tumor size were measured and the results are expressed as the measurement made in the treated group (T) divided by the measurement made in the vehicle treated control group (C). The tumor model used in this assay is Colon 26 Adenocarcinoma (intraperitoneal) in CD2F1 (CDF1) mice

Structures are written as SMILES. Toxic doses and inconclusive results are not listed.

Turning to `C1CCC2[N-]CC3CCCCC3[N-]CC3CCCCC3[N-]CC3CCCCC3[N-]CC2C1.[Cu]` (configuration not stated), the T/C is 110 % of control (dose: 0.63 mg/kg/injection, schedule: Q04DX003 (ip), vehicle: Klucel (hydroxypropylcellulose) (HPC)); 107 % of control (dose: 1.25 mg/kg/injection, schedule: Q04DX003 (ip), vehicle: Klucel (hydroxypropylcellulose) (HPC)); 105 % of control (dose: 2.5 mg/kg/injection, schedule: Q04DX003 (ip), vehicle: Klucel (hydroxypropylcellulose) (HPC)); 111 % of control (dose: 5.0 mg/kg/injection, schedule: Q04DX003 (ip), vehicle: Klucel (hydroxypropylcellulose) (HPC)); 122 % of control (dose: 10.0 mg/kg/injection, schedule: Q04DX003 (ip), vehicle: Klucel (hydroxypropylcellulose) (HPC)); 111 % of control (dose: 20.0 mg/kg/injection, schedule: Q04DX003 (ip), vehicle: Klucel (hydroxypropylcellulose) (HPC)).

In the case of `NC(Cc1ccc(N(CCCl)CCCl)cc1)C(=O)O` (configuration not stated), the T/C is, setting by setting: (dose: 2.0 mg/kg/injection, schedule: Q04DX002 (ip), vehicle: Klucel (hydroxypropylcellulose) (HPC)) 168 % of control; (dose: 4.0 mg/kg/injection, schedule: Q04DX002 (ip), vehicle: Klucel (hydroxypropylcellulose) (HPC)) 253 % of control; (dose: 8.0 mg/kg/injection, schedule: Q04DX002 (ip), vehicle: Klucel (hydroxypropylcellulose) (HPC)) 245 % of control; (dose: 16.0 mg/kg/injection, schedule: Q04DX002 (ip), vehicle: Klucel (hydroxypropylcellulose) (HPC)) 156 % of control.

On to `O=NN(CCCl)C(=O)NCCCl`, for which the T/C runs as follows: (dose: 4.0 mg/kg/injection, schedule: Q04DX003 (ip), vehicle: saline + alcohol) 168 % of control; (dose: 8.0 mg/kg/injection, schedule: Q04DX003 (ip), vehicle: saline + alcohol) 250 % of control; (dose: 16.0 mg/kg/injection, schedule: Q04DX003 (ip), vehicle: saline + alcohol) 335 % of control; (dose: 20.0 mg/kg/injection, schedule: Q04DX003 (oral), vehicle: saline + alcohol) 161 % of control; (dose: 33.0 mg/kg/injection, schedule: Q04DX003 (oral), vehicle: saline + alcohol) 255 % of control; (dose: 53.0 mg/kg/injection, schedule: Q04DX003 (oral), vehicle: saline + alcohol) 289 % of control. Besides, the T/C (dose: 85.0 mg/kg/injection, schedule: Q04DX003 (oral), vehicle: saline + alcohol) was 285 % of control.

Turning to `CC1C(=O)CCC2(C)C1CCC1CC3CC12CCC3(O)CO` (configuration not stated), the T/C (dose: 25.0 mg/kg/injection, schedule: Q04DX002 (ip), vehicle: saline + alcohol) is 100 % of control; the T/C (dose: 50.0 mg/kg/injection, schedule: Q04DX002 (ip), vehicle: saline + alcohol) was 106 % of control; the T/C (dose: 100.0 mg/kg/injection, schedule: Q04DX002 (ip), vehicle: saline + alcohol) is 92 % of control.

For the molecule `CN(C)C(=O)c1cccc(COc2ccc(N3C(N)=NC(N)=NC3(C)C)cc2Cl)c1`, the T/C reads like this: (dose: 24.0 mg/kg/injection, schedule: Q06HX018 (ip), vehicle: saline) 96 % of control; (dose: 36.0 mg/kg/injection, schedule: Q06HX018 (ip), vehicle: saline) 98 % of control.
